What all share (format): cell-based
For experiment [1], the target named is T1, recombinant full-length P1R (Homo sapiens, UniProt Q03431).
T1 construct: expressed in transfected cells
T1 sequence (Q03431 27-593): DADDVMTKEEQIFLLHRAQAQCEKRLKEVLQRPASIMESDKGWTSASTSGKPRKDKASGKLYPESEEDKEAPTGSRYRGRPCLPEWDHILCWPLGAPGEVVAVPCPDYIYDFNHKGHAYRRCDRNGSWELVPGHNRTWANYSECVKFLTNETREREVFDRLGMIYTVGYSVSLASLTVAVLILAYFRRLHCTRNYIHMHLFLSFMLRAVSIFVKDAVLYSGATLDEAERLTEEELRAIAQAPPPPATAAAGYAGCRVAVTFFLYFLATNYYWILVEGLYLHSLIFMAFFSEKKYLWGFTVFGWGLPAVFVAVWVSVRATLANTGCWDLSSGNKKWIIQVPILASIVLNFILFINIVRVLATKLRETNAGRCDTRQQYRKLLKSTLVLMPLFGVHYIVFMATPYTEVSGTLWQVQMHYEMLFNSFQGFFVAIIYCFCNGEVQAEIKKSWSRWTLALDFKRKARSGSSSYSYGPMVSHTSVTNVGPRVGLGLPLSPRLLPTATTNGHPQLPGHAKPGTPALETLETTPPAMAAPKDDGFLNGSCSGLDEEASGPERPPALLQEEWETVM
Nature of the experiment: cAMP stimulation in HKRK-B28 cells. To be noted: for Emax: percent of maximum response of PTH(1-14), Table 3; for capacity to stimulate cAMP formation at a single dose: 10 μM. The protocol:
Cell Culture. The cell line HKRK-B28 (Takasu, H., et al., J. Bone Miner. Res. 14:11-20 (1999)) was derived from the porcine kidney cell line, LLC-PK1 by stable transfection with plasmid DNA encoding the full-length P1R and expresses ˜280,000 receptors per cell. These cells, as well as COS-7 cells and SaOS-2-B10 cells, were cultured at […] in T-75 flasks ([…]) in Dulbecco's modified Eagle's medium (DMEM) supplemented with fetal bovine serum (10%), penicillin G (20 units/ml), streptomycin sulfate (20 μg/ml) and amphotericin B (0.05 μg/ml) in a humidified atmosphere containing 5% CO2. Stock solutions of EGTA/trypsin and antibiotics were from GIBCO; fetal bovine serum was from Hyclone Laboratories (Logan, Utah). COS-7 cells sub-cultured in 24-well plates were transfected with plasmid DNA (200 ng per well) encoding the wild-type human P1R or truncated human P1R deleted for residues (24-181) (Shimizu, M., et al., J. Biol. Chem. 275:21836-21843 (2000)) that was purified by cesium chloride/ethidium bromide density gradient centrifugation, and FuGENE 6 transfection reagent (Roche Indianapolis Ind.) according to the manufacturer's recommended procedure. All cells, in 24-well plates, were treated with fresh media and shifted to 33° C. for 12 to 24 h prior to assay.
(§1) cAMP Stimulation. Stimulation of cells with peptide analogs was performed in 24-well plates. Cells were rinsed with 0.5 mL of binding buffer (50 mM Tris-HCl, 100 mM NaCl, 5 mM KCl, 2 mM CaCl2, 5% heat-inactivated horse serum, 0.5% fetal bovine serum, adjusted to pH 7.5 with HCl) and treated with 200 μL of cAMP assay buffer (Delbecco's modified Eagle's medium containing 2 mM 3-isobutyl-1-methylxanthine, 1 mg/mL bovine serum albumin, 35 mM Hepes-NaOH, pH 7.4) and 100 μL of binding buffer containing varying amounts of peptide analog (final volume=300 μL). The medium was removed after incubation for 30 to 60 minutes at room temperature, and the cells were frozen on dry ice, lysed with 0.5 mL 50 mM HCl, and refrozen ([…]). The cAMP content of the diluted lysate was determined by radioimmunoassay. The EC50 response values were calculated using nonlinear regression (see below).
(§2) Data Calculation. Calculations were performed using Microsoft® Excel. Nonlinear regression analyses of binding and cAMP dose-response data were performed using the four-parameter equation: yp=Min+[(Max−Min)/(1+(IC50/x)^slope)]. The Excel Solver function was utilized for parameter optimization, as described previously (Carter, P. H., et al., Endocrinology 140: 4972-4981 (1999); Bowen, W. P., and Jerman, J. C., Trends in Pharmacol. Sci. 16: 413-417 (1995)). Differences between paired data sets were statistically evaluated using a one-tailed Student's t-test, assuming unequal variances for the two sets.
The effects of installing a direct covalent linkage between the side chains of the residues at positions 6 and 10 on PTH analog function were also assessed. To do this, paired Glu^6/Lys^10 or Lys^6/Glu^10 substitutions were introduced into an otherwise non-constrained PTH(1-14) analog scaffold AlaValAlaGluIleGln LeuMetHisGlnHarAlaLysTrp-amide (SEQ. ID. NO. 11) and formed an amide bond between the carboxylate side chain group of the introduced glutamate residue and the amino side chain group of the introduced lysine residue. For controls, a portion of each Glu/Lys- or Lys/Glu-substituted PTH(1-14) analog was preserved in the non-bridged form. The four peptides: [Glu^6, Lys^10]PTH(1-14)(linear)(SEQ. ID. NO. 24), [(Glu^6,Lys^10)lac.]PTH(1-14) cyclized via a 6-10 lactam bridge)(SEQ. ID. NO. 3), [Lys^6, Glu^10]PTH(1-14)(SEQ. ID. NO. 25), and [(Lys^6, Glu^10)lac.]PTH(1-14)(SEQ. ID. NO. 26) were first compared at a single dose of 10 μM for the capacity to stimulate cAMP formulation in HKRK-B28 cells, an LLC-PK1-derived cell line that expresses the recombinant full-length P1R at a moderate level (˜280,000 receptors per cell). […]

Another experiment deals with T2, P1R (Homo sapiens, UniProt Q03431).
T2 construct: expressed in transfected cells
T2 sequence (Q03431 27-593): T1 sequence (Q03431 27-593)
Kind of experiment: cAMP stimulation in HKRK-B7 cells. To be noted: for Emax: cAMP response, Table 1. The protocol: as §1, §2
The functional effects of substitutions at positions 6 and 10 in PTH using a PTH(1-11) analog AlaValAlaGluIleGlnLeuMetHisGlnArg-amide as the scaffold peptide (SEQ. ID. NO. 8). The peptides were analyzed for the capacity to stimulate cAMP formation in HKRK-B7 cells, an LLC-PK1-derived cell line that expresses via stable transfection the recombinant human P1R at high density (˜950,000 receptors per cell).

The next experiment addresses T3, P1R-DelNt (Homo sapiens, UniProt Q03431).
T3 construct: expressed in transfected cells
T3 sequence (Q03431 with tags, fused parts or gaps limits assumed): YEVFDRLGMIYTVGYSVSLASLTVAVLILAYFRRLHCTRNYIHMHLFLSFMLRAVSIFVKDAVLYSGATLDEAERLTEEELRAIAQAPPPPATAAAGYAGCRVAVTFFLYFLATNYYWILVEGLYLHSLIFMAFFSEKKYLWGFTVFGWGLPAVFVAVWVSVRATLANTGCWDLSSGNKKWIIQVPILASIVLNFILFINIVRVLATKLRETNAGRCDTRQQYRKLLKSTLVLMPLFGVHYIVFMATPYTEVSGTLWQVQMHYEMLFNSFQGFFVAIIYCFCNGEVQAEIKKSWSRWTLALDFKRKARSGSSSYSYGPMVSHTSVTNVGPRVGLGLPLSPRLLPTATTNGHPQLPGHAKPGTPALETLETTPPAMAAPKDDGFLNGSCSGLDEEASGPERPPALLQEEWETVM
Nature of the experiment: cAMP stimulation in LdelNt-2 cells. To be noted: for Emax: percent of maximum response of PTH(1-11). The protocol: as §1, §2
The two-domain hypothesis of the PTH-P1R interaction mechanism predicts that the effects of the substitutions at positions 6 and 10 observed with the above PTH(1-11) analogs involve interactions (direct or indirect) that occur within the juxtamembrane region of the receptor. To test this hypothesis, P1R-DelNt was utilized. P1R-DeNt is a P1R construct that is deleted for most of the N domain yet which retains nearly full capacity to be expressed on the cell surface and to stimulate cAMP formation in response to N-terminal PTH analogs, and an LLC-PK1-derived cell line was herein established, LdelNt-2, which stably expresses P1R-DelNt.

Entries after “also recorded” stand apart in the source; their conditions may differ. Positions of bridges follow the written chain, without caps; N, C: chain ends. Non-standard residues stand in square brackets, D forms with d. Residues, ends and D or L forms follow the SMILES beside them. hArg = N=C(N)NCCCC[C@H](N)C(=O)O

Experimental findings from patent publication US7521528B2, “Conformationally constrained parathyroid hormone (PTH) analogs with lactam bridges” (The General Hospital Corporation, priority 2003, dated 2009) are described below.

With `CC[C@H](C)[C@H](NC(=O)[C@H](CCC(=O)O)NC(=O)[C@H](C)NC(=O)[C@@H](NC(=O)[C@H](C)N)C(C)C)C(=O)N[C@@H](CCC(N)=O)C(=O)N[C@@H](CC(C)C)C(=O)N[C@@H](CCSC)C(=O)N[C@@H](Cc1c[nH]cn1)C(=O)N[C@@H](CCC(N)=O)C(=O)N[C@@H](CCCCNC(=N)N)C(=O)N[C@@H](C)C(=O)N[C@@H](CCCCN)C(=O)N[C@@H](Cc1c[nH]c2ccccc12)C(N)=O` [PTH(1-14) (SEQ. ID. NO. 11), [Ala^1,3,12,Gln^10,Har^11,Trp^14]PTH(1-14)amide] (H-AVAEIQLMHQ[hArg]AKW-NH2), in experiment [1] (n=3), the “maximum cAMP response observed” value is 359±52 picomoles of cAMP per well. In experiment [1], the Emax stood at 100 ± 2%.

With `CC[C@H](C)[C@H](NC(=O)[C@H](CCC(=O)O)NC(=O)[C@H](C)NC(=O)[C@@H](NC(=O)[C@H](C)N)C(C)C)C(=O)N[C@H]1CCC(=O)NCCCC[C@@H](C(=O)N[C@@H](CCCCNC(=N)N)C(=O)N[C@@H](C)C(=O)N[C@@H](CCCCN)C(=O)N[C@@H](Cc2c[nH]c3ccccc23)C(N)=O)NC(=O)[C@H](Cc2c[nH]cn2)NC(=O)[C@H](CCSC)NC(=O)[C@H](CC(C)C)NC1=O` [[(Glu^6, Lys^10)lac.]PTH(1-14), AlaValAlaGluIleGluLeuMetHisLysHarAlaLysTrp cyclized via a 6-10 lactam bridge] (H-AVAEIELMHK[hArg]AKW-NH2; lactam 6-10), in experiment [1], the “capacity to stimulate cAMP formation at a single dose” value is on record as “comparable to that of its linear counterpart” and the Emax was found to be 52 ± 3%.

Regarding `CC[C@H](C)[C@H](NC(=O)[C@H](CCC(=O)O)NC(=O)[C@H](C)NC(=O)[C@@H](NC(=O)[C@H](C)N)C(C)C)C(=O)N[C@H]1CCCCNC(=O)CC[C@@H](C(=O)N[C@@H](CCCCNC(=N)N)C(=O)N[C@@H](C)C(=O)N[C@@H](CCCCN)C(=O)N[C@@H](Cc2c[nH]c3ccccc23)C(N)=O)NC(=O)[C@H](Cc2c[nH]cn2)NC(=O)[C@H](CCSC)NC(=O)[C@H](CC(C)C)NC1=O` [[(Lys^6, Glu^10)lac.]PTH(1-14)] (H-AVAEIKLMHE[hArg]AKW-NH2; lactam 6-10), in experiment [1], the “capacity to stimulate cAMP formation at a single dose” value is on record as “more active than its linear counterpart; also recorded: significantly (P<0.0001) greater than that elicited by the linear control” and the Emax is 59 ± 3%. Further, the “potency relative to linear [Lys^6, Glu^10]PTH(1-14)” value in experiment [1] (dose-response analyses) was “six-fold more potent”.

On to `CC[C@H](C)[C@H](NC(=O)[C@H](CCC(=O)O)NC(=O)[C@H](C)NC(=O)[C@@H](NC(=O)[C@H](C)N)C(C)C)C(=O)N[C@@H](CCC(=O)O)C(=O)N[C@@H](CC(C)C)C(=O)N[C@@H](CCSC)C(=O)N[C@@H](Cc1c[nH]cn1)C(=O)N[C@@H](CCCCN)C(=O)N[C@@H](CCCCNC(=N)N)C(=O)N[C@@H](C)C(=O)N[C@@H](CCCCN)C(=O)N[C@@H](Cc1c[nH]c2ccccc12)C(N)=O` [[Glu^6, Lys^10]PTH(1-14)] (H-AVAEIELMHK[hArg]AKW-NH2), for which, in experiment [1], the Emax stood at 52 ± 3%.

For `CC[C@H](C)[C@H](NC(=O)[C@H](CCC(=O)O)NC(=O)[C@H](C)NC(=O)[C@@H](NC(=O)[C@H](C)N)C(C)C)C(=O)N[C@@H](CCCCN)C(=O)N[C@@H](CC(C)C)C(=O)N[C@@H](CCSC)C(=O)N[C@@H](Cc1c[nH]cn1)C(=O)N[C@@H](CCC(=O)O)C(=O)N[C@@H](CCCCNC(=N)N)C(=O)N[C@@H](C)C(=O)N[C@@H](CCCCN)C(=O)N[C@@H](Cc1c[nH]c2ccccc12)C(N)=O` [[Lys^6, Glu^10]PTH(1-14)] (H-AVAEIKLMHE[hArg]AKW-NH2), the Emax in experiment [1] came out at 37 ± 5%.

For “H-AVAEIALMHAR-NH2 [[Ala^6, Ala^10]PTH(1-11)]”, on P1R, the “potency relative to [Ala^6]PTH(1-11)” value is listed as “two-fold greater” and the Emax worked out at 41 ± 2%. For the same compound, on P1R-DelNt, the “potency relative to [Ala^6]PTH(1-11)” value is on record as “two-fold lower” and the Emax came to 42 ± 5%.

Consider H-AVAEIALMHQR-NH2 [[Ala^6]PTH(1-11)], for which the Emax on P1R amounted to 26 ± 2%. Also, on P1R-DelNt, the “EC50/potency difference versus parent PTH(1-11)” value is about 3 fold and the Emax was 14 ± 2%.

H-AVAEIQLMHAR-NH2 [[Ala^10]PTH(1-11)]: the Emax on P1R came out at 88 ± 5%; on P1R-DelNt it was 79 ± 5%.

As to “H-AVAEIQLMHQR-NH2 [PTH(1-11)(SEQ. ID. NO. 8), AlaValAlaGluIleGlnLeuMetHisGlnArg-amide]”, at P1R, the “fold increase in cAMP formation” value turned out to be 75 fold and the Emax turned out to be 100 ± 3%. Also, on P1R-DelNt, the “EC50/potency difference versus parent PTH(1-11)” value is given as 22 fold, the “fold increase in cAMP formation/accumulation” value is given as 55 fold and the Emax turned out to be 100 ± 2%. At P1R-DelNt (n=3), the “maximum cAMP response observed” value was 113±4 pM of cAMP per well.
